Values quoted from earlier work in patent publication US4127533A, “Novel octapeptides, intermediates therefor, and compositions and methods employing said octapeptides” (priority 1977, dated 1978).

What was measured:
[1] = tested on: brain opiate receptor sites
rat = details: injected directly into the brain of the rat

Question: What does the source list for “H-Tyr-Gly-Gly-Phe-Met-OH [methionine enkephalin]”?
Answer: binding to partially purified brain opiate receptor sites [1]: binds stereo-specifically; analgesic activity (rat): only weak analgesic agent of short duration
